How the values were obtained:
[1] = system: Sprague-Dawley rat; experiment: Mean arterial blood pressure in anesthetized rats after femoral vein bolus (Examples 5, 6); assay type: in vivo; settings: for blood pressure response: bolus into femoral vein, 2-200 nmol/kg
Excerpt: Rats were anesthetized by intraperitoneal injection of pentobarbital and the femoral arteries and veins accessed by local cut down. The artery was then cannulated and the blood pressure monitored continuously using a Viggo Spectramed pressure transducer attached to a Gould recorder. An IBM PC (DATA Q Codas) was used for data acquisition.

[2] = Endogenous SNO-Hb and Hb(FeII)NO in rat blood by photolysis-chemiluminescence; assay type: in vivo; settings: 45 minutes after infusion of 50 mg/kg
Excerpt: A highly sensitive photolysis-chemiluminescence methodology was employed, which had been used for measuring RSNOs (S-nitrosothiols) in biological systems (Gaston, B., et al., Proc. Natl. Acad. Sci. USA 90:10957-10961 (1993); Stamler, J. S., et al., Proc. Natl. Acad. Sci USA 89:7674-7677 (1992)). The method involves photolytic liberation of NO from the thiol, which is then detected in a chemiluminesence spectrometer by reaction with ozone. […]
Blood was obtained from the left ventricle (arterial) and jugular vein (venous) of anesthetized Sprague-Dawley rats. […] In 24 rats, Hb samples were divided in two aliquots which were then treated or not treated with 10-fold excess HgCl2 over protein concentration as measured by the method of Bradford. […] Under these conditions, any nitrite present was converted to S-nitrosoglutathione, which was then measured by photolysis-chemiluminescence (detection limit ˜1 nM). SNO-Hb was present in all arterial samples, and levels determined by this method (286±33 nM) were virtually identical to and not statistically different from those shown in Table 2. […]
A highly sensitive photolysis-chemiluminescence methodology was employed. […] The method involves photolytic liberation of NO from the thiol, which is then detected in a chemiluminesence spectrometer by reaction with ozone. […]

[3] = system: rabbit aortic ring; experiment: Vessel ring bioassay of SNO-Hb preparations (Examples 4, 13); assay type: cell-based; settings: for effect of added glutathione on the dose-response: glutathione 100 ∥M in bioassay chambers (FIG. 4B); for vasoactivity in vascular ring bioassay: no added thiol (FIG. 4A)
Method: Details of the vessel ring bioassay have been published (Stamler, J. S., et al., Proc. Natl. Acad. Sci. USA 89:444-448 (1992)). SNO-Hb(FeII)O2 preparations were synthesized with 10-fold excess S-nitrosocysteine (CYSNO) over Hb(FeII)O2 protein (2% borate, 0.5 mM EDTA, ˜15 min incubation), after which desalting was performed across Sephadex G-25 columns. CYSNO was synthesized in 0.5 N HCl, 0.5 mM EDTA and then neutralized (1:1) in 1 M phosphate buffer containing 0.5 mM EDTA. […] The latter was synthesized by treatment of Hb(FeII)O2 with excess ferricyanide, followed by desalting across G-25 columns. SNO-Hb concentrations were verified spectroscopically and the S-nitrosothiol content was determined by the method of Saville (Stamler, J. S., et al., Proc. Natl. Acad. Sci USA 89:444-448 (1992)). The S—NO/tetramer stoichiometry for both SNO-Hb preparations was ˜2. Oxidation of the heme was undetectable by uv-spectrophotometric methods.
The aortic ring bioassay was performed as described in Example 4. The product of the reaction in which a ratio of 100:1 CYSNO/Hb tetramer was used, contains 2 SNOs as well as NO attached to the heme.

[4] = system: platelets; experiment: ADP-induced aggregation of platelet-rich plasma; assay type: cell-based, human; settings: 5 μM ADP
Method: Venous blood, anticoagulated with […] sodium citrate, was obtained from volunteers who had not consumed acetylsalicylic acid or any other platelet-active agent for at least 10 days. Platelet-rich plasma was prepared by centrifugation at 150×g for 10 minutes at 25° C. and was used within 2 hours of collection. Platelet counts were determined with a Coulter counter (model ZM) to be 1.5 to 3×10^8/ml.
Aliquots (0.3 ml) of platelets were incubated at 37° C. and stirred at 1000 rpm in a PAP-4 aggregometer (Biodata, Hatsboro, Pa.). Hemoglobins were preincubated with platelets for 10 min and aggregations were induced with 5 μM ADP. Aggregations were quantified by measuring the maximal rate and extent of change of light transmittance and are expressed as a normalized value relative to control aggregations performed in the absence of hemoglobin.

[5] = system: rat brain (caudatoputamen nucleus); experiment: Brain blood flow in rats by H2 clearance (Example 12); assay type: in vivo; settings: Example 12, FIG. 10
Method: SNO-Hb(FeII)O2, having a SNO/Hb ratio of 2, was prepared (from HbA0) by reaction with S-nitrosothiol. Rats breathing 21% O2 were injected (time 0) with Hbs prepared from HbA0 as indicated in FIG. 10 (open circles, SNO-Hb (100 nmol/kg); filled circles, SNO-Hb (1000 nmol/kg); filled squares, unmodified Hb (1000 nmol/kg)). Three rats were used per experiment. Blood flow was measured in brain using the H2 clearance method; microelectrodes were placed in the brain stereotactically. […] NO group release is promoted by local tissue hypoxia.

[6] = Decomposition and stability of SNO-Hb forms; assay type: physicochemical; settings: as synthesized in Example 27
Method: Hbs in PBS (0.5 mM EDTA, pH 7.4) were incubated in air (oxy) or in a tonometer previously evacuated of O2 (deoxy). SNO-Hb(FeII)O2 decomposition was determined by the method of Saville (Saville, B., Analyst 83:670-672 (1958)). Spontaneous decomposition of SNO-Hb(FeII) was followed spectrophotometrically by formation of Hb(FeII)NO. Transnitrosation reactions with glutathione were performed by addition of 100-fold excess glutathione over protein (50 μM), immediate processing of the reaction mixture under anaerobic conditions followed by rapid TCA precipitation, and analysis of RSNO in the supernatant. Rates of NO group transfer were too rapid to measure accurately by the standard methods used in this study.

[7] = system: cGMP in platelets; experiment: cGMP radioimmunoassay in platelet rich plasma; assay type: cell-based; settings: 1, 10 and 100 μM; 5 min incubation
Method: Platelet rich plasma (PRP) was incubated with either hemoglobin, SNO-oxy Hb, or SNO-metHb for 5 min, after which the assay was terminated by the addition of 0.5 ml of ice cold trichloroacetic acid to 10%. Ether extractions of the supernatant were performed to remove trichloroacetic acid, and acetylation of samples with acetic anhydride was used to increase the sensitivity of the assay. Measurements of cyclic GMP were performed by radioimmunoassay (Stamler, J. et al., Circ. Res. 65:789-795 (1989)).

[8] = Transnitrosation between SNO-Hb and glutathione; assay type: biochemical; settings: SNO-Hb 100 μM, glutathione 10 mM
Excerpt: Data are presented as the amount of GSNO formed relative to the starting SNO-Hb concentration.
Thiol/SNO-Hb exchange, forming GSNO, was verified chemically (Stamler, J. S., et al., Proc. Natl. Acad. Sci. USA, 89:444-448 (1992)) following trichloroacetic acid precipitation (n=5).

## CNC(=N)NCCC[C@H](N)C(=O)O [L-NMMA, N^ω-monomethyl-L-arginine]
[1]; 50 mg/kg
  increase in blood pressure: about 20 mm Hg
[2]
  depletion of SNO-Hb: 82%
  depletion of total Hb-NO: 50±18%

## SNO-Hb(FeII)O2: S-nitroso-oxyhemoglobin made from oxyHb with excess S-nitrosocysteine
[3]
  effect of added glutathione on the dose-response: potentiates the dose-response
  vasoactivity in vascular ring bioassay: modest NO-like activity
[1]
  blood pressure response: did not exhibit hypertensive effects
[4]; 10 nM to 100 μM preincubated 10 min
  inhibition of platelet aggregation: some inhibition of platelet aggregation at the higher concentrations tested
[5]
  duration of effects on blood flow in rat brain: over 20 minutes
[6]
  stability of the isolated preparation: quite stable

## SNO-Hb(FeIII): S-nitroso-methemoglobin, S-nitrosylated methemoglobin
[3]
  effect of added glutathione on the dose-response: potentiates the dose-response
  vasoactivity in vascular ring bioassay: vasodilator
[1]
  time for blood pressure to normalize after hypotensive response: 10 min
  blood pressure response: hypotensive responses
[1]; after 200 nmol/kg (highest dose)
  mean arterial pressure, post: 74±6 mm Hg
[1]; before 200 nmol/kg infusion
  mean arterial pressure, pre: 108±4 mm Hg
[4]; preincubated 10 min
  concentrations at which platelet aggregation is inhibited: ≥ 1 µM
[7]
  concentration of cGMP measured: less than that of native Hb
[6]
  stability of the isolated preparation: inherently unstable
[8]
  rate of NO group transfer to glutathione: more rapid

From patent US7538193B2, “NO-modified hemoglobins and uses therefor” (Duke University, priority 1995, dated 2009)
